In patent US5258401A, “Cholesterol lowering compounds” (Merck & Co., Inc., priority 1992, dated 1993):
Values after ≈ are worked out from the molar mass of the structure shown.

Tests used:
Format in all cases: cell-based
Candida MY 1012 = assay: Antifungal inhibitor dilution assay in microtiter format (yeasts); conditions: MY1012, lowest concentration to prevent growth, read-out: Minimum Inhibitory Concentration
Description: (§1) The compounds are particularly active towards filamentous fungi and yeasts including Candida albicans and Cryptococcus neoformans. The sensitivity of filamentous fungi and yeast is determined using inhibitor dilution assays in microtiter format. The compounds are dissolved in DMSO at 2 mg/ml and serially diluted in 0.1M phosphate buffer, pH 7.0 in the microtiter dish from 100 to 0.006 μg/ml. A standardized spore suspension for testing the filamentous fungi is prepared by inoculating Antibiotic Medium #3 containing 1.5% agar with spores such that 1.5×10^3 colony forming units are added per well. The microtiter wells are filled with 50 μof buffer containing compound and 50 μl of inoculated medium.
(§2) The sensitivity of yeasts is determined by inoculating yeast nitrogen base containing 1% dextrose (YNB/G) with aliquots of an overnight yeast culture grown in Yeast Morphology (YM) media at 35° C. and diluting in YNB/G to yield a final concentration of 1.5-7.5×10^3 colony forming units/well. To test the sensitivity of yeast, compound is solubilized in 10 percent aqueous DMSO at 2.56 mg/ml. The compound is diluted serially in YNB/G from 128 to 0.06 μg/ml and further diluted 1:10 in YNB/G. The wells are filled with 150 μl of media containing drug. The minimum inhibitory concentration (MIC) is defined as the lowest concentration to prevent growth after an incubation for 42 hours, at 28° C. for the filamentous fungi and 24 to 48 hours, at 35° for the yeasts.

Candida MY 1010 = assay: as above; conditions: MY1010, lowest concentration to prevent growth, read-out: Minimum Inhibitory Concentration
Description: as §1, §2

Candida MY 1028 = assay: as above; conditions: MY1028, lowest concentration to prevent growth, read-out: Minimum Inhibitory Concentration
Description: as §1, §2

Sachromyces MY 1976 = assay: as above; conditions: lowest concentration to prevent growth, read-out: Minimum Inhibitory Concentration
Description: as §1, §2

Cryptococcus MY 1146 = assay: as above; conditions: MY1146, lowest concentration to prevent growth, read-out: Minimum Inhibitory Concentration
Description: as §1, §2

Candida MY 1750 = assay: as above; conditions: MY1750, lowest concentration to prevent growth, read-out: Minimum Inhibitory Concentration
Description: as §1, §2

Candida MY 1019 = assay: as above; conditions: MY1019, lowest concentration to prevent growth, read-out: Minimum Inhibitory Concentration
Description: as §1, §2

Cryptococcus MY 2061 = assay: as above; conditions: MY2061, lowest concentration to prevent growth, read-out: Minimum Inhibitory Concentration
Description: as §1, §2

Cryptococcus MY 2062 = assay: as above; conditions: MY2062, lowest concentration to prevent growth, read-out: Minimum Inhibitory Concentration
Description: as §1, §2

Cryptococcus MY 1051 = assay: as above; conditions: MY1051, lowest concentration to prevent growth, read-out: Minimum Inhibitory Concentration
Description: as §1, §2

Candida MY 1055 = assay: as above; conditions: MY1055, lowest concentration to prevent growth, read-out: Minimum Inhibitory Concentration
Description: as §1, §2

Candida MY 2099 = assay: as above; conditions: MY2099, lowest concentration to prevent growth, read-out: Minimum Inhibitory Concentration
Description: as §1, §2

Aspergillus MF 0383 = assay: Antifungal inhibitor dilution assay in microtiter format (filamentous fungi); conditions: MF0383, lowest concentration to prevent growth, read-out: Minimum Inhibitory Concentration
Description: as §1, §2

Aspergillus MF 5668 = assay: as above; conditions: MF5668, lowest concentration to prevent growth, read-out: Minimum Inhibitory Concentration
Description: as §1, §2

Aspergillus MF 5669 = assay: as above; conditions: MF5669, lowest concentration to prevent growth, read-out: Minimum Inhibitory Concentration
Description: as §1, §2

Aspergillus MF 4839 = assay: as above; conditions: MF4839, lowest concentration to prevent growth, read-out: Minimum Inhibitory Concentration
Description: as §1, §2

Compound	MIC (Candida MY 1012)	MIC (Candida MY 1010)	MIC (Candida MY 1028)	MIC (Sachromyces MY 1976)	MIC (Cryptococcus MY 1146)	MIC (Candida MY 1750)	MIC (Candida MY 1019)	MIC (Cryptococcus MY 2061)	MIC (Cryptococcus MY 2062)	MIC (Cryptococcus MY 1051)	MIC (Candida MY 1055)	MIC (Candida MY 2099)	MIC (Aspergillus MF 0383)	MIC (Aspergillus MF 5668)	MIC (Aspergillus MF 5669)	MIC (Aspergillus MF 4839)
C=C(CC[C@]12OC[C@@](O)(C(=O)OCOC(=O)C(C)(C)C)[C@](C(=O)O)(O1)[C@H](OC(=O)/C=C/[C@@H](C)C[C@@H](C)CC)[C@H]2O)[C@@H](OC(C)=O)[C@H](C)Cc1ccccc1 [Zaragozic acid A-3-descarboxy-4-methyl pivalate ester]	16 µg/mL (≈ 21 µM)	> 128 µg/mL	> 128 µg/mL	> 128 µg/mL	8 µg/mL (≈ 10.5 µM)	> 128 µg/mL	> 128 µg/mL	64 µg/mL (≈ 84.1 µM)	8 µg/mL (≈ 10.5 µM)	2 µg/mL (≈ 2.63 µM)	> 128 µg/mL	> 128 µg/mL	1 µg/mL (≈ 1.31 µM)	32 µg/mL (≈ 42.1 µM)	32 µg/mL (≈ 42.1 µM)	32 µg/mL (≈ 42.1 µM)
C=C(CC[C@]12OC[C@@](O)(C(=O)O)[C@](C(=O)O)(O1)[C@H](OC(=O)/C=C/[C@@H](C)C[C@@H](C)CC)[C@H]2O)[C@@H](OC(C)=O)[C@H](C)Cc1ccccc1 [Zaragozic Acid A-3-Descarboxy, (1S,4S,5R,6R,7R)-1-[(4S)-acetoxy-3-methylene-(5R)-methyl-6-phenyl]hexyl-4,6,7-trihydroxy-6-O-((4S),(6S)-dimethyl-2-octenoyl)-2,8-dioxabicyclo-[3.2.1]octane-4,5-dicarboxylic acid]	16 µg/mL (≈ 24.7 µM)	64 µg/mL (≈ 99 µM)	32 µg/mL (≈ 49.5 µM)	> 128 µg/mL	2 µg/mL (≈ 3.09 µM)	64 µg/mL (≈ 99 µM)	> 128 µg/mL	4 µg/mL (≈ 6.18 µM)	1 µg/mL (≈ 1.55 µM)	0.25 µg/mL (≈ 0.387 µM)	64 µg/mL (≈ 99 µM)	> 128 µg/mL	2 µg/mL (≈ 3.09 µM)	32 µg/mL (≈ 49.5 µM)	8 µg/mL (≈ 12.4 µM)	8 µg/mL (≈ 12.4 µM)
